From EPA's ToxRefDB 2 come the findings set out here.

Series [1] deals with rat. The note with it: Sub-acute repeat dose toxicity, sprague dawley, Oral, Gavage/Intubation, dose end: 14 day, group: systemic.
Series [2] concerns rat. The note with it: Sub-acute repeat dose toxicity, sprague dawley, Oral, Gavage/Intubation, dose end: 14 day, group: systemic. This is another data set of the same source.
For series [3], the system named is primate. The note with it: Sub-acute repeat dose toxicity; Oral; Gavage/Intubation; dose end: 15 day; group: systemic; systemic / in life observation / clinical signs / emesis.
Series [4] concerns primate. The note with it: Sub-acute repeat dose toxicity, Oral, Gavage/Intubation, dose end: 14 day, group: systemic.
Series [5] has as its system dog. Conditions: Sub-acute repeat dose toxicity, beagle, Oral, Gavage/Intubation, dose end: 10 day, group: systemic.
The test system of series [6] is primate. Conditions: Sub-acute repeat dose toxicity; Oral; Gavage/Intubation; dose end: 20 day; group: systemic; systemic / in life observation / clinical signs / emesis.
For series [7], the system named is primate. The note with it: Subchronic oral toxicity in nonrodent, macaque, Gavage/Intubation, dose end: 13 week.
In series [8] the test system is rat. Conditions: Sub-acute repeat dose toxicity, wistar, Oral, Gavage/Intubation, dose end: 33 day, group: systemic.
For series [9], the system named is mouse. Conditions: Combined chronic toxicity/carcinogenicity, cd1, Oral, Gavage/Intubation, dose end: 104 week, group: systemic.
Series [10] deals with rat. The note with it: Chronic toxicity; wistar; Oral; Gavage/Intubation; dose end: 27 week; group: systemic; systemic / clinical chemistry / bile acids / bile acids + systemic / clinical chemistry / cholesterol / cholesterol + systemic / clinical ….
Series [11] deals with rat. Conditions: Combined chronic toxicity/carcinogenicity; wistar; Oral; Gavage/Intubation; dose end: 104 week; group: systemic; systemic / in life observation / mortality / mortality + systemic / pathology microscopic / intestine large / [other] + systemic / pathology….
In series [12] the test system is rat. The note with it: Combined chronic toxicity/carcinogenicity, sprague dawley, Oral, Feed, dose end: 24 month, group: systemic.
Series [13] deals with mouse. The note with it: Carcinogenicity; cd1; Oral; Feed; dose end: 78 week; group: systemic; systemic / pathology microscopic / kidney / nephropathy.
For series [14], the system named is dog. The note with it: Chronic toxicity, beagle, Oral, Capsule, dose end: 52 week, group: systemic.
For series [15], the system named is dog. Conditions: Subchronic oral toxicity in nonrodent, beagle, Feed, dose end: 90 day, group: systemic.
The subject of series [16] is rat. Conditions: Subchronic oral toxicity in rodents, sprague dawley, Feed, dose end: 90 day, group: systemic.
The test system of series [17] is rat. The note with it: Multigenerational reproductive toxicity study, sprague dawley, Oral, Feed, dose end: 2 generation.
The subject of series [18] is rat. Conditions: Prenatal developmental toxicity study, sprague dawley, Oral, Gavage/Intubation, dose end: 17 GD.
In series [19] the test system is rat. Conditions: Prenatal developmental toxicity study, sprague dawley, Injection, Intramuscular, dose end: 13 GD, group: developmental.
For series [20], the system named is rat. The note with it: Subchronic oral toxicity in rodents, wistar, Feed, dose end: 13 week, group: systemic.
Where [21] appears, read: systemic / clinical chemistry / albumin / albumin + systemic / clinical chemistry / globulins / globulins + systemic / clinical chemistry / ….
The mark [22] stands for this setting: systemic / in life observation / clinical signs / salivation.
Setting [23] is: systemic / clinical chemistry / albumin / albumin + systemic / clinical chemistry / cholesterol / cholesterol + systemic / hematology / ….
The mark [24] stands for this setting: systemic / clinical chemistry / alanine aminotransferase (alt/sgpt) / alanine aminotransferase (alt/sgpt) + systemic / clinical chemistry / ….
Where [25] appears, read: systemic / in life observation / clinical signs / emesis + systemic / in life observation / clinical signs / reduced activity.
Where [26] appears, read: systemic / in life observation / clinical signs / emesis.
Where [27] appears, read: systemic / in life observation / clinical signs / emesis + systemic / in life observation / clinical signs / abnormal feces.
Setting [28] is: group: maternal, reproductive / reproductive performance / estrous cycle / abnormal.
Setting [29] is: group: systemic, systemic / clinical chemistry / gamma glutamyl transferase (ggt) / gamma glutamyl transferase (ggt) + systemic / clinical chemistry / ….
Setting [30] is: systemic / clinical chemistry / albumin / albumin + systemic / clinical chemistry / chloride / chloride + systemic / clinical chemistry / ….
The mark [31] stands for this setting: systemic / clinical chemistry / potassium / potassium + systemic / clinical chemistry / triglycerides / triglycerides + systemic / organ ….
Setting [32] is: systemic / pathology microscopic / gallbladder / adenoma + systemic / pathology microscopic / gallbladder / hemangioma + systemic / ….
The mark [33] stands for this setting: systemic / pathology microscopic / gallbladder / adenoma + systemic / pathology microscopic / gallbladder / hyperplasia + systemic / ….
Setting [34] is: systemic / clinical chemistry / gamma glutamyl transferase (ggt) / gamma glutamyl transferase (ggt).
The mark [35] stands for this setting: systemic / in life observation / body weight / body weight gain + systemic / organ weight / liver / relative to body weight + systemic / ….
The mark [36] stands for this setting: systemic / clinical chemistry / lipids / phospholipids.
The mark [37] stands for this setting: systemic / clinical chemistry / aspartate aminotransferase (ast/sgot) / aspartate aminotransferase (ast/sgot) + systemic / clinical ….
Setting [38] is: systemic / clinical chemistry / cholesterol / cholesterol + systemic / clinical chemistry / lipids / phospholipids + systemic / hematology….
The mark [39] stands for this setting: group: offspring, systemic / in life observation / body weight / offspring (pup) weight.
Where [40] appears, read: group: parental, systemic / in life observation / body weight / body weight + systemic / in life observation / body weight / body weight gain + systemic / in….
Where [41] appears, read: group: developmental, developmental / developmental malformation / bone / [other].
The mark [42] stands for this setting: group: developmental, developmental / developmental malformation / bone / [other] + developmental / developmental malformation / other / other + developmental / ….
[43] abbreviates: group: maternal, systemic / in life observation / body weight / body weight + systemic / in life observation / body weight / body weight gain + systemic / in….
The mark [44] stands for this setting: developmental / developmental malformation / mouth / jaw / cleft palate.
Where [45] appears, read: developmental / developmental malformation / mouth / jaw / cleft palate + systemic / in life observation / body weight / fetal weight.
Setting [46] is: systemic / in life observation / clinical signs / lack of coordination + systemic / in life observation / clinical signs / voluntary muscle ….

Bounds are passed on as bounds.

A word on the LOAEL: it is the lowest tested level that showed an adverse finding. For orientation: NOAEL means the highest dose or exposure tested at which no adverse effect was seen. As to `CC(C)(O)c1ccc(CNC(=O)c2cccnc2Oc2ccc3nonc3c2)cc1`, the LOAEL is more than 160 mg/kg/day in series [1] (setting [21]); more than 125 mg/kg/day in series [2] (setting [23]); more than 50 mg/kg/day in series [3]; more than 1000 mg/kg/day in series [4] (setting [24]); more than 250 mg/kg/day in [5] (setting [27]); more than 300 mg/kg/day in series [6]. Also, the NOAEL in series [1] (setting [21]) was not below 160 mg/kg/day; in [2] (setting [23]) it was not below 125 mg/kg/day; in series [3] it was not below 50 mg/kg/day; in series [4] (setting [24]), not below 1000 mg/kg/day; in [5] (setting [27]) it was not below 250 mg/kg/day; in series [6], not below 300 mg/kg/day. Moreover, the LEL stood at 5 mg/kg/day in series [1] (setting [22]); 25 mg/kg/day in series [2] (systemic / pathology microscopic / mesentery / inflammation); 5 mg/kg/day in [3]; 20 mg/kg/day in [4] (setting [25]); 10 mg/kg/day in series [5] (setting [26]); 20 mg/kg/day in series [6]. Further, the NEL in series [1] (setting [22]) was less than 5 mg/kg/day; in [2] (setting [23]) it was 5 mg/kg/day; in series [3], 1 mg/kg/day; in series [4] (setting [25]) it was less than 20 mg/kg/day; in series [5] (setting [26]) it was less than 10 mg/kg/day; in series [6] it was less than 20 mg/kg/day.

On to `Cc1oc(-c2ccccc2)nc1CCOc1ccc(C[C@H](Nc2ccccc2C(=O)c2ccccc2)C(=O)O)cc1` [Farglitazar], for which the LEL in series [7] (setting [28]) worked out at 50 mg/kg/day; in series [7] (setting [29]), 0.5 mg/kg/day; in series [8] (setting [31]), 0.5 mg/kg/day; in [9] (setting [33]), 1 mg/kg/day; in series [10], 0.5 mg/kg/day; in [11], 0.5 mg/kg/day. In addition, the LOAEL is more than 50 mg/kg/day in series [7] (setting [28]); more than 50 mg/kg/day in [7] (setting [29]); more than 500 mg/kg/day in series [8] (setting [30]); more than 50 mg/kg/day in [9] (setting [32]); more than 50 mg/kg/day in series [10]; more than 20 mg/kg/day in series [11]. Further, the NEL in series [7] (setting [28]) is 5 mg/kg/day; in [7] (setting [29]), less than 0.5 mg/kg/day; in series [8] (setting [31]), less than 0.5 mg/kg/day; in series [9] (setting [33]), less than 1 mg/kg/day; in [10] it was less than 0.5 mg/kg/day; in series [11] it was less than 0.5 mg/kg/day. For the same compound, the NOAEL in series [7] (setting [28]) is not below 50 mg/kg/day; in [7] (setting [29]) it was not below 50 mg/kg/day; in [8] (setting [30]), not below 500 mg/kg/day; in series [9] (setting [32]) it was not below 50 mg/kg/day; in series [10] it was not below 50 mg/kg/day; in series [11] it was not below 20 mg/kg/day.

Turning to `CC(COc1ccc(Oc2ccccc2)cc1)Oc1ccccn1` (configuration not stated) [Pyriproxyfen], the LEL in [12] (setting [34]) amounted to 7.04 mg/kg/day; in series [13], 420 mg/kg/day; in series [14] (systemic / in life observation / body weight / body weight gain + systemic / clinical chemistry / cholesterol / cholesterol + systemic / …) it was 100 mg/kg/day; in [15] (setting [36]) it was 100 mg/kg/day; in series [16] (setting [37]), 23.5 mg/kg/day; in series [17] (setting [39]), 453 mg/kg/day. In addition, the LEL in series [17] (group: parental, systemic / organ weight / liver / relative to body weight + systemic / pathology microscopic / kidney / inflammation + systemic / organ …) is 87 mg/kg/day; in [18] (setting [41]) it was 300 mg/kg/day; in series [18] (setting [43]), 300 mg/kg/day. Further, the NEL in series [12] (setting [34]) was less than 7.04 mg/kg/day; in [13] it was 84 mg/kg/day; in series [14] (setting [35]), 30 mg/kg/day; in series [15] (setting [36]), less than 100 mg/kg/day; in series [16] (setting [37]), less than 23.5 mg/kg/day; in series [17] (setting [39]), 87 mg/kg/day. Moreover, the NEL in series [17] (setting [40]) turned out to be 18 mg/kg/day; in [18] (setting [42]), 100 mg/kg/day; in series [18] (setting [43]), 100 mg/kg/day. Besides, the NOAEL in series [12] (systemic / clinical chemistry / gamma glutamyl transferase (ggt) / gamma glutamyl transferase (ggt) + systemic / in life observation / body …) was determined as 35.1 mg/kg/day; in series [13], 84 mg/kg/day; in series [14] (setting [35]), 100 mg/kg/day; in series [15] (systemic / pathology microscopic / liver / hypertrophy + systemic / clinical chemistry / alpha-1 globulin / alpha-1 globulin + systemic / …) it was 100 mg/kg/day; in series [16] (setting [38]), 23.5 mg/kg/day; in series [17] (setting [39]), 87 mg/kg/day. For the same compound, the NOAEL in series [17] (setting [40]) is 87 mg/kg/day; in [18] (setting [42]) it was 100 mg/kg/day; in series [18] (setting [43]), 100 mg/kg/day. Also, the LOAEL came out at 183 mg/kg/day in series [12] (systemic / in life observation / body weight / body weight); 420 mg/kg/day in [13]; 300 mg/kg/day in series [14] (systemic / in life observation / body weight / body weight gain + systemic / organ weight / liver / relative to body weight); 300 mg/kg/day in [15] (systemic / pathology microscopic / liver / hypertrophy + systemic / organ weight / liver / absolute + systemic / organ weight / liver / …); 118 mg/kg/day in series [16] (setting [38]); 453 mg/kg/day in series [17] (setting [39]). Further, the LOAEL in [17] (setting [40]) was found to be 453 mg/kg/day; in series [18] (setting [41]) it was 300 mg/kg/day; in series [18] (setting [43]), 300 mg/kg/day.

Turning to `C[C@]12C=CC(=O)C=C1CC[C@H]1[C@@H]3C[C@@H](O)[C@](O)(C(=O)CO)[C@@]3(C)C[C@H](O)[C@@]12F` [Triamcinolone], in series [19] (setting [44]), the LEL was 10 mg/kg/day and the NEL is less than 10 mg/kg/day. For the same compound, in [19] (setting [45]), the LOAEL was more than 40 mg/kg/day and the NOAEL was not below 40 mg/kg/day.

For `CC1(C)[C@H](C(=O)O[C@H](C#N)c2cccc(Oc3ccccc3)c2)[C@@H]1/C=C(\Cl)C(F)(F)F` [gamma-Cyhalothrin], in series [20] (setting [46]), the LOAEL came out at 6.6 mg/kg/day, the NEL stood at 0.7 mg/kg/day and the NOAEL amounted to 3.4 mg/kg/day. This compound also displayed an LEL in series [20] (systemic / organ weight / liver / relative to body weight) of 3.4 mg/kg/day.
